Source: patent US20230174472A1, “THERAPEUTIC USE OF PLEUROMUTILINS” (priority 2020, published 2023)
Like-named read-outs stand apart in the source and are kept apart here.

What was measured:
[1] = system: influenza A/Puerto Rico/8/34 (H1N1); type: in vivo, BALB/c mice
in vitro [2] = conditions: dog
[3] = system: influenza A virus strain (PR8); conditions: cited from earlier work
polio virus = conditions: cited from earlier work
[4] = system: herpes simplex type 1 (HSV-1) virus; conditions: cited from earlier work
[5] = system: vesicular stomatitis virus (VSV); conditions: cited from earlier work
[6] = system: alpha coronavirus 229E (HCoV-229E); assay: inhibition of virus-induced CPE, CoV229E in MRC-5 cells (XTT); type: cell-based
Experimental: The antiviral compound Remdesivir served as positive control.
Lefamulin (as acetate) was evaluated using different treatment conditions of 4 h, 1 h or 0 h incubation prior to virus addition and addition 1 h after infection For this particular set of experiments, coronavirus was diluted 1:200 in assay medium and added at 100 μL/well to achieve approximately 90% cell killing in the untreated virus control wells (MOI of 0.001).

in vitro [7] = conditions: human
[8] = system: human rhinovirus strain HRV16 strain 11757; assay: inhibition of virus-induced CPE, human rhinovirus in H1-HeLa cells; type: cell-based; conditions: Human rhinovirus sp., 4 hour pretreatment
Experimental: Cell viability determination as well as EC50 and TC50 calculations were performed as described in Examples 6 and 8.

in vitro [9] = conditions: human; remark: listed apart in the source
[10] = system: mice challenged with lipopolysaccharide (LPS); assay: modified LPS induced lung neutrophilia model, BALF cell counts 24 h post LPS (Example 4)
[11] = cell viability of uninfected Huh7 cells; conditions: human, TC50, Example 13 (Zika assay)
[12] = system: respiratory syncytial virus (RSV ALONG); assay: inhibition of virus-induced CPE, RSV ALONG in HEp2 cells; conditions: Example 10; investigated strain of RSV A
[13] = system: respiratory syncytial virus (RSV B18537); assay: inhibition of virus-induced CPE, RSV B18537 in HEp2 cells; conditions: Example 10; investigated strain of RSV B
[14] = system: human respiratory syncytial virus (strain RSVA2); assay: inhibition of virus-induced CPE, RSVA2 in HEp2 cells (XTT)
MRC-5 cells = conditions: Example 6
[15] = system: human respiratory syncytial virus (strain RSVA2); conditions: Example 8
in vitro [16] = conditions: human, TC50
HEp2 cells = assay: cell viability of uninfected HEp2 cells (XTT); conditions: Example 8
[17] = system: influenza A virus, porcine reproductive and respiratory syndrome virus (PRRSV) type 1 and 2; conditions: WO 2009/106839; compared to Tiamulin 0.1-10 μg/mL; cited from earlier work
[18] = system: lipopolysaccharide (LPS)-induced ALI; conditions: cited from earlier work
[19] = system: mice challenged with lipopolysaccharide (LPS); assay: LPS induced lung neutrophilia model, BALF cell counts (Example 2); conditions: 10, 30 and 100 mg/kg SC; 4 h post LPS
[20] = system: TNF-α, IL-6, IL-1β, GM-CSF, CXCL1, CXCL2, CCL2, MMP9 in lung homogenate; assay: LPS induced lung neutrophilia model, marker concentrations in lung homogenate (Example 2)
[21] = lower doses of 10 and 30 mg/kg SC
[22] = same doses (10, 30, 100 mg/kg SC)

For CCOC(=O)C1=C[C@@H](OC(CC)CC)[C@H](NC(C)=O)[C@@H](N)C1 [Oseltamivir, reference compound], the “lung viral titres (TCID50 on MDCK cells)” value ([1]; Lefamulin at both doses, Oseltamivir positive control, Day 3 and Day 6, vs vehicle treated control) was “reduced”, the bodyweight loss ([1]; positive control treatment) was “reduction” and the clinical scores ([1]; positive control treatment) was “reduction”. For the same molecule, the CC50 (in vitro [2]) was over 200000 nM.
In the case of C=C[C@]1(C)C[C@@H](OC(=O)CO)[C@]2(C)[C@H](C)CC[C@]3(CCC(=O)[C@H]32)[C@@H](C)[C@@H]1O [Pleuromutilin], the “concentration with antiviral activity” value [3] is given as 2 mg/mL, the “antiviral activity for polio virus” value (polio virus) is given as “did not show antiviral activity” and the “concentration that conferred a 50% protection of the cytopathic effect induced by HSV-1 (CPE50)” value [4] is given as 15 µg/mL. The EC50 ([4]; read-out: concentration that conferred a 50% protection of the cytopathic effect induced by HSV-1 (CPE50)) was 40000 nM and the “activity against vesicular stomatitis virus (VSV)” value [5] was “activity”.
CCC(CC)COC(=O)[C@H](C)N[P@](=O)(OC[C@H]1O[C@@](C#N)(c2ccc3c(N)ncnn23)[C@H](O)[C@@H]1O)Oc1ccccc1 [Remdesivir, reference compound] showed an EC50 ([6]; Human coronavirus 229E, MRC5) of 110 nM and a CC50 (in vitro [7]) of over 5000 nM.
CCOC(=O)/C=C/[C@H](C[C@@H]1CCNC1=O)NC(=O)[C@@H](CC(=O)[C@@H](NC(=O)c1cc(C)on1)C(C)C)Cc1ccc(F)cc1 [Rupintrivir] showed an EC50 [8] of 4.9 nM, an EC50 ([8]; MOI 0.0005, Lefamulin as acetate) of 4.9 nM and a CC50 (in vitro [9]) of over 100 nM.
In the case of C=C(CC(=O)[O-])C(=O)[O-].[Na+].[Na+] [Sodium itaconate, reference compound], the BALF cell counts ([10]; 55 mg/kg single SC dose 30 min prior to IN LPS) is reported as “some reduction”.
For CC(C)OC(=O)[C@H](C)N[P@](=O)(OC[C@H]1O[C@@H](n2ccc(=O)[nH]c2=O)[C@](C)(F)[C@@H]1O)Oc1ccccc1 [Sofosbuvir, reference compound], the CC50 at 6 days [11] was over 10000 nM.
Cc1ccc(CCCO)c(NCc2ccc3nc(NCCCN4CCOCC4)n(Cc4nc(C)ccc4O)c3c2)c1 [TMC353121] showed an EC50 [12] of 0.01 nM, an EC50 [13] of 0.01 nM and an EC50 ([14]; Example 8, HEp2 cells, 4 h incubation prior to virus, MOI 0.001, 6 days post-infection, Lefamulin as acetate, Tiamulin as fumarate) of 0.6 nM. It also gave an EC50 ([14]; Example 9, MOI 0.0004) of 0.04 nM, an EC50 ([14]; Example 9, MOI 0.0008) of 0.3 nM and an EC50 ([14]; Example 9, MOI 0.001) of 0.2 nM. It also gave an EC50 ([14]; Example 9, MOI 0.003) of 0.2 nM.
For C=C[C@]1(C)C[C@@H](OC(=O)CSCCN(CC)CC)[C@]2(C)[C@H](C)CC[C@]3(CCC(=O)[C@H]32)[C@@H](C)[C@@H]1O [Tiamulin, reference compound], the “reduction of viral CPE” value ([6]; 10 µM) was 10.53%, the “reduction of viral CPE” value ([6]; 50 μM) was 81.68% and the EC50 ([6]; Example 6, MRC-5 cells, 4 h incubation prior to virus, MOI 0.001, 6 days post-infection, Lefamulin as acetate, Tiamulin as fumarate, read-out: EC50) was 24400 nM. For the same molecule, the “cytotoxic effect on the viability of the cell control” value (MRC-5 cells; 10 μM) was “no cytotoxic effect”, the “cytotoxic effect on the viability of the cell control” value (MRC-5 cells; 50 μM) was “cytotoxic effect” and the “reduction of viral CPE” value ([15]; 10 μM) was 16.76%. For the same molecule, the “reduction of viral CPE” value ([15]; 50 μM) was 43.28%, the CC50 at 6 days (in vitro [7]) was 62900 nM and the CC50 at 6 days (in vitro [16]) was 67900 nM. For the same molecule, the viability (HEp2 cells; 10 μM) was 84%, the viability (HEp2 cells; 50 μM) was 70.0% and the EC50 ([14]; human respiratory syncytial virus, HEp-2, Example 8, HEp2 cells, 4 h incubation prior to virus, MOI 0.001, 6 days post-infection, Lefamulin as acetate, Tiamulin as fumarate) was over 67900 nM.
In the case of C=C[C@]1(C)C[C@@H](OC(=O)CSC(C)(C)CNC(=O)[C@H](N)C(C)C)[C@]2(C)[C@H](C)CC[C@]3(CCC(=O)[C@H]32)[C@@H](C)[C@@H]1O [Valnemulin, reference compound], the antiviral activity [17] is listed as “did not exhibit antiviral activity”, the “concentration of pro-inflammatory cytokines TNF-α, IL-6 and IL-1ß in bronchoalveolar lavage fluid” value ([18]; in vivo) is listed as “attenuate” and the “pulmonary wet-to-dry (W/D) ratio in the lung” value ([18]; pre-administration) is listed as “significantly reduced”. For the same molecule, the “lymphocyte cell counts in BALF” value [19] was “not significantly affected”, the “macrophage cell counts in BALF” value [19] was “not significantly affected” and the “reduction of MMP9 levels in lung homogenate” value ([20]; 100 mg/kg SC) was 50%. The “GM-CSF in lung homogenate” value ([20]; all doses tested (10, 30, 100 mg/kg SC)) was “showed a reduction of GM-CSF levels, but was less active than Lefamulin”, the “LPS-induced CCL2 increase in the lung homogenate” value ([20]; all investigated doses (10, 30, 100 mg/kg SC), Valnemulin particularly at 10 and 30 mg/kg) was “less active” and the “effect on CXCL1 compared to Lefamulin” value [20, 21] was “less effect”. The “effect on CXCL2 compared to Lefamulin” value [20, 21] was “less effect”, the “IL-6 level in lung homogenate, compared with Lefamulin” value [20, 22] was “less active” and the “TNF-α level in lung homogenate, compared with Lefamulin” value [20, 22] was “less active”.
For Lefamulin acetate, the “cell count in BALF” value ([10]; 70 mg/kg single SC dose 30 min prior to IN LPS) was “reduction”.
